Measured values reported in PubChem BioAssay AID180 (DTP/NCI, 2004).
Where “and” joins values, the source holds several entries; their conditions need not be identical. Equal values may be shown once.

Test system: BDF1 mice, Adenocarcinoma 755 s.c., tumor weight T/C
Assay: NCI In Vivo Anticancer Drug Screen. Data for tumor model Adenocarcinoma 755 (subcutaneous) in B6D2F1 (BDF1) mice
Details: endpoint: mean tumor weight, higher = larger tumour
In short: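 Readout: T/C, i.e. treated-group measurement over vehicle-control measurement. Endpoint is survival or tumor size in tumor-bearing mice given compound.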

[1] = dose: 14.0 mg/kg/injection, schedule: Q01DX011 (ip), vehicle: carboxymethylcellulose (CMC)
[2] = dose: 31.0 mg/kg/injection, schedule: Q01DX011 (ip), vehicle: carboxymethylcellulose (CMC)
[3] = dose: 3.0 mg/kg/injection, schedule: Q01DX011 (ip), vehicle: carboxymethylcellulose (CMC)
[4] = dose: 1.0 mg/kg/injection, schedule: Q01DX011 (ip), vehicle: carboxymethylcellulose (CMC)
[5] = dose: 30.0 mg/kg/injection, schedule: Q01DX011 (ip), vehicle: carboxymethylcellulose (CMC)
[6] = dose: 60.0 mg/kg/injection, schedule: Q01DX011 (ip), vehicle: carboxymethylcellulose (CMC)
[7] = dose: 120.0 mg/kg/injection, schedule: Q01DX011 (ip), vehicle: carboxymethylcellulose (CMC)
[8] = dose: 240.0 mg/kg/injection, schedule: Q01DX011 (ip), vehicle: carboxymethylcellulose (CMC)

O=C(O)CCC(=O)Nc1nccs1 was tested, and the T/C (dose: 150.0 mg/kg/injection, schedule: Q01DX011 (ip), vehicle: carboxymethylcellulose (CMC)) was 71 % of control, the T/C (dose: 300.0 mg/kg/injection, schedule: Q01DX011 (ip), vehicle: carboxymethylcellulose (CMC)) was 83 % of control and the T/C (dose: 600.0 mg/kg/injection, schedule: Q01DX011 (ip), vehicle: carboxymethylcellulose (CMC)) was 63 % of control.
For CCCCSc1ncnc2c1ncn2C1CCCCO1 (centres undefined), the T/C (dose: 9.2 mg/kg/injection, schedule: Q01DX011 (ip), vehicle: carboxymethylcellulose (CMC)) was 78 % of control, the T/C [1] was 58 % of control and the T/C (dose: 21.0 mg/kg/injection, schedule: Q01DX011 (ip), vehicle: carboxymethylcellulose (CMC)) was 35 % of control. For the same compound, the T/C [2] was 17 % of control, the T/C (dose: 47.0 mg/kg/injection, schedule: Q01DX011 (ip), vehicle: carboxymethylcellulose (CMC)) was 21 % of control and the T/C (dose: 63.0 mg/kg/injection, schedule: Q01DX011 (ip), vehicle: carboxymethylcellulose (CMC)) was 11 % of control. The T/C (dose: 94.0 mg/kg/injection, schedule: Q01DX011 (ip), vehicle: carboxymethylcellulose (CMC)) was 8 % of control, the T/C (dose: 125.0 mg/kg/injection, schedule: Q01DX011 (ip), vehicle: carboxymethylcellulose (CMC)) was 9 % of control and the T/C (dose: 175.0 mg/kg/injection, schedule: Q01DX011 (ip), vehicle: carboxymethylcellulose (CMC)) was 12 % of control. The T/C (dose: 188.0 mg/kg/injection, schedule: Q01DX011 (ip), vehicle: carboxymethylcellulose (CMC)) was 2 % of control and the T/C (dose: 262.5 mg/kg/injection, schedule: Q01DX011 (ip), vehicle: carboxymethylcellulose (CMC)) was 14 % of control.
For CN(C)c1ccc(/C=C/c2ccnc3ccccc23)cc1, the T/C (dose: 4.0 mg/kg/injection, schedule: Q01DX011 (ip), vehicle: water) was 117 % of control, the T/C (dose: 8.0 mg/kg/injection, schedule: Q01DX011 (ip), vehicle: water) was 105 % of control and the T/C (dose: 16.0 mg/kg/injection, schedule: Q01DX011 (ip), vehicle: water) was 72 % of control.
In the case of Nc1nc(N)c(N=O)c(Nc2ccc(Cl)c(Cl)c2)n1, the T/C (dose: 1.75 mg/kg/injection, schedule: Q01DX011 (ip), vehicle: methylcellulose (MC)) is reported as 90 % of control, the T/C [3] is reported as 76 % of control and the T/C (dose: 3.5 mg/kg/injection, schedule: Q01DX011 (ip), vehicle: methylcellulose (MC)) is reported as 77 % of control. For the same compound, the T/C (dose: 4.0 mg/kg/injection, schedule: Q01DX011 (ip), vehicle: methylcellulose (MC)) was 61 % of control, the T/C (dose: 6.0 mg/kg/injection, schedule: Q01DX011 (ip), vehicle: methylcellulose (MC)) was 50 % of control and the T/C (dose: 7.0 mg/kg/injection, schedule: Q01DX011 (ip), vehicle: carboxymethylcellulose (CMC)) was 57 % of control. The T/C (dose: 7.0 mg/kg/injection, schedule: Q01DX011 (ip), vehicle: methylcellulose (MC)) was 48 % of control, the T/C [1] was 45 % of control and 50 % of control and the T/C (dose: 14.0 mg/kg/injection, schedule: Q01DX011 (ip), vehicle: methylcellulose (MC)) was 25 % of control and 44 % of control. For the same compound, the T/C (dose: 28.0 mg/kg/injection, schedule: Q01DX011 (ip), vehicle: methylcellulose (MC)) was 21 % of control, the T/C (dose: 57.0 mg/kg/injection, schedule: Q01DX011 (ip), vehicle: carboxymethylcellulose (CMC)) was 66 % of control and the T/C (dose: 57.0 mg/kg/injection, schedule: Q01DX011 (ip), vehicle: methylcellulose (MC)) was 18 % of control. For the same compound, the T/C (dose: 114.0 mg/kg/injection, schedule: Q01DX011 (ip), vehicle: carboxymethylcellulose (CMC)) was 63 % of control and the T/C (dose: 228.0 mg/kg/injection, schedule: Q01DX011 (ip), vehicle: carboxymethylcellulose (CMC)) was 8 % of control.
With N#[N+]c1nc2ncnc(N)c2[nH]1 the T/C (dose: 12.5 mg/kg/injection, schedule: Q01DX011 (ip), vehicle: saline) was 101 % of control and the T/C (dose: 25.0 mg/kg/injection, schedule: Q01DX011 (ip), vehicle: saline) was 70 % of control.
In the case of O=C(NCCCCCCCCCCNC(=O)N1CC1)N1CC1, the T/C (dose: 0.5 mg/kg/injection, schedule: Q01DX011 (ip), vehicle: carboxymethylcellulose (CMC)) is reported as 57 % of control and 66 % of control and the T/C [4] is reported as 2 % of control and 20 % of control.
With Cc1ccc(S(=O)(=O)OCC2OC(n3cnc4c(=O)[nH]c(N)nc43)C(O)C2O)cc1 (centres undefined) the T/C (dose: 5.0 mg/kg/injection, schedule: Q01DX011 (ip), vehicle: carboxymethylcellulose (CMC)) was 108 % of control, the T/C [5] was 97 % of control and the T/C [6] was 100 % of control. For the same compound, the T/C [7] was 98 % of control and the T/C [8] was 62 % of control.
With CN(C)N=Nc1ccc(C(=O)NN)cc1 the T/C (dose: 75.0 mg/kg/injection, schedule: Q01DX011 (ip), vehicle: carboxymethylcellulose (CMC)) was 31 % of control and the T/C (dose: 100.0 mg/kg/injection, schedule: Q01DX011 (ip), vehicle: carboxymethylcellulose (CMC)) was 15 % of control.
For COC(=O)c1nc(-c2ccc3c(n2)C(=O)C(N)=C(OC)C3=O)c(N)c(-c2ccc(OC)c(OC)c2O)c1C, the T/C (dose: 0.31 mg/kg/injection, schedule: Q01DX011 (ip), vehicle: other) was 42 % of control, the T/C (dose: 0.63 mg/kg/injection, schedule: Q01DX011 (ip), vehicle: other) was 14 % of control and the T/C (dose: 1.25 mg/kg/injection, schedule: Q01DX011 (ip), vehicle: other) was 1 % of control. The T/C (dose: 6.0 mg/kg/injection, schedule: Q01DX006 (ip), vehicle: water) was 40 % of control and the T/C (dose: 12.5 mg/kg/injection, schedule: Q01DX006 (ip), vehicle: water) was 7 % of control.
With O=C(Nc1nc2c(ncn2C2CC(OC(=O)c3ccccc3)C(COC(=O)c3ccccc3)O2)c(=O)[nH]1)c1ccccc1 (centres undefined) the T/C [5] was 103 % of control, the T/C [6] was 94 % of control and the T/C [7] was 113 % of control. For the same compound, the T/C [8] was 124 % of control.
For Nc1nc2nc(/N=N/SCCO)[nH]c2c(=O)[nH]1, the T/C (dose: 25.0 mg/kg/injection, schedule: Q01DX011 (ip), vehicle: methylcellulose (MC)) was 65 % of control and the T/C (dose: 50.0 mg/kg/injection, schedule: Q01DX011 (ip), vehicle: methylcellulose (MC)) was 39 % of control.
For CN(Cc1cnc2nc(NCNC(=O)C3=C(O)[C@@]4(O)C(=O)C5=C(O)c6c(O)cccc6[C@@](C)(O)[C@H]5C[C@H]4[C@H](N(C)C)C3=O)nc(N)c2n1)c1ccc(C(=O)NC(CCC(=O)O)C(=O)O)cc1 (some centres undefined), the T/C (dose: 1.5 mg/kg/injection, schedule: Q01DX011 (ip), vehicle: saline) was 109 % of control, the T/C (dose: 3.0 mg/kg/injection, schedule: Q01DX011 (ip), vehicle: saline) was 103 % of control and the T/C (dose: 6.0 mg/kg/injection, schedule: Q01DX011 (ip), vehicle: saline) was 69 % of control.
With CCCn1cnc2c(=S)nc[nH]c21 the T/C (dose: 0.25 mg/kg/injection, schedule: Q01DX011 (ip), vehicle: carboxymethylcellulose (CMC)) was 80 % of control, the T/C [4] was 53 % of control and the T/C [3] was 8 % of control and 11 % of control. The T/C (dose: 4.0 mg/kg/injection, schedule: Q01DX011 (ip), vehicle: carboxymethylcellulose (CMC)) was 7 % of control, the T/C (dose: 6.25 mg/kg/injection, schedule: Q01DX011 (ip), vehicle: carboxymethylcellulose (CMC)) was 6 % of control and the T/C (dose: 8.0 mg/kg/injection, schedule: Q01DX011 (ip), vehicle: carboxymethylcellulose (CMC)) was 10 % of control. For the same compound, the T/C (dose: 12.5 mg/kg/injection, schedule: Q01DX011 (ip), vehicle: carboxymethylcellulose (CMC)) was 5 % of control, the T/C (dose: 16.0 mg/kg/injection, schedule: Q01DX011 (ip), vehicle: carboxymethylcellulose (CMC)) was 4 % of control and 9 % of control and the T/C (dose: 25.0 mg/kg/injection, schedule: Q01DX011 (ip), vehicle: carboxymethylcellulose (CMC)) was 2 % of control. The T/C [2] was 7 % of control and the T/C (dose: 62.0 mg/kg/injection, schedule: Q01DX011 (ip), vehicle: carboxymethylcellulose (CMC)) was 6 % of control.
With Nc1nc(SCc2ccc(Cl)cc2Cl)c2ncn(C3OC(CO)C(O)C3O)c2n1 (centres undefined) the T/C (dose: 4.69 mg/kg/injection, schedule: Q01DX011 (ip), vehicle: methylcellulose (MC)) was 51 % of control, the T/C (dose: 9.38 mg/kg/injection, schedule: Q01DX011 (ip), vehicle: methylcellulose (MC)) was 49 % of control and the T/C (dose: 18.75 mg/kg/injection, schedule: Q01DX011 (ip), vehicle: methylcellulose (MC)) was 21 % of control. For the same compound, the T/C (dose: 37.5 mg/kg/injection, schedule: Q01DX011 (ip), vehicle: methylcellulose (MC)) was 2 % of control.
For O=C(O)c1cc(Cl)nc(Cl)n1, the T/C (dose: 31.0 mg/kg/injection, schedule: Q01DX011 (ip), vehicle: methylcellulose (MC)) was 92 % of control, the T/C (dose: 62.0 mg/kg/injection, schedule: Q01DX011 (ip), vehicle: methylcellulose (MC)) was 103 % of control and the T/C (dose: 125.0 mg/kg/injection, schedule: Q01DX011 (ip), vehicle: methylcellulose (MC)) was 105 % of control.
With CC(C)Sc1nc(N)nc2c1ncn2C1OC(CO)C(O)C1O (centres undefined) the T/C (dose: 0.38 mg/kg/injection, schedule: Q01DX011 (ip), vehicle: methylcellulose (MC)) was 48 % of control, the T/C (dose: 0.75 mg/kg/injection, schedule: Q01DX011 (ip), vehicle: methylcellulose (MC)) was 60 % of control and the T/C (dose: 1.5 mg/kg/injection, schedule: Q01DX011 (ip), vehicle: methylcellulose (MC)) was 40 % of control. For the same compound, the T/C (dose: 3.0 mg/kg/injection, schedule: Q01DX011 (ip), vehicle: methylcellulose (MC)) was 36 % of control and the T/C (dose: 3.1 mg/kg/injection, schedule: Q01DX011 (ip), vehicle: methylcellulose (MC)) was 3 % of control.
